Assays:
[1] = biological target: T1, recombinant human 5-HT6 receptor (Homo sapiens, UniProt P50406); assay: Radioligand binding studies, 5-HT6 ligand affinity by competing for binding of [3H]LSD; conditions: [3H]LSD competition; membranes of HEK293 cells stably expressing the receptor; pH 7.4, 37° C., 75 min; duplicate determinations; read-out: pKi for 5-HT6 (converted)
T1 construct: expressed in transfected cells; membranes)
Protocol: The binding activity of compounds of this invention in vitro was determined as follows. Duplicate determinations of 5-HT6 ligand affinity were made by competing for binding of [^3H]LSD in cell membranes derived from HEK293 cells stably expressing recombinant human 5-HT6 receptor. Duplicate determinations of 5-HT2A ligand affinity were made by competing for binding of [^3H]Ketanserin (3-(2-(4-(4-fluorobenzoyl)piperidinol)ethyl)-2,4(1H,3H)-quinazolinedione) in cell membranes derived from CHO-K1 cells stably expressing recombinant human 5-HT2A receptor. Membranes were prepared from HEK 293 cell lines by the method described by Monsma et al., Molecular Pharmacology, Vol. 43 pp. 320-327 (1993), and from CHO-K^1 cell lines as described by Bonhaus et al., Br J. Pharmacol. June; 115(4):622-8 (1995).
For estimation of affinity at the 5-HT6 receptor, all determinations were made in assay buffer containing 50 mM Tris-HCl, 10 mM MgSO4, 0.5 mM EDTA, 1 mM ascorbic acid, pH 7.4 at 37° C., in a 250 microliter reaction volume. For estimation of affinity at the 5-HT2A receptor all determinations were made in assay buffer containing 50 mM Tris-HCl, 5 mM ascorbic acid, 4 mM CaCl2, pH 7.4 at 32° C., in a 250 microliter reaction volume.
Assay tubes containing [^3H] LSD or [^3H]Ketanserin (5 nM), competing ligand, and membrane were incubated in a shaking water bath for 75 min. at 37° C. (for 5-HT6) or 60 min. at 32° C. (for 5-HT2A), filtered onto Packard GF-B plates (pre-soaked with 0.3% PEI) using a Packard 96 well cell harvester and washed 3 times in ice cold 50 mM Tris-HCl. Bound [^3H] LSD or [^3H]Ketanserin were determined as radioactive counts per minute using Packard TopCount.
Displacement of [^3H]LSD or [^3H]Ketanserin from the binding sites was quantified by fitting concentration-binding data to a 4-parameter logistic equation:
[formula] where Hill is the Hill slope, [ligand] is the concentration of competing radioligand and IC50 is the concentration of radioligand producing half-maximal specific binding of radioligand. […]

T1 sequence (P50406 whole entry): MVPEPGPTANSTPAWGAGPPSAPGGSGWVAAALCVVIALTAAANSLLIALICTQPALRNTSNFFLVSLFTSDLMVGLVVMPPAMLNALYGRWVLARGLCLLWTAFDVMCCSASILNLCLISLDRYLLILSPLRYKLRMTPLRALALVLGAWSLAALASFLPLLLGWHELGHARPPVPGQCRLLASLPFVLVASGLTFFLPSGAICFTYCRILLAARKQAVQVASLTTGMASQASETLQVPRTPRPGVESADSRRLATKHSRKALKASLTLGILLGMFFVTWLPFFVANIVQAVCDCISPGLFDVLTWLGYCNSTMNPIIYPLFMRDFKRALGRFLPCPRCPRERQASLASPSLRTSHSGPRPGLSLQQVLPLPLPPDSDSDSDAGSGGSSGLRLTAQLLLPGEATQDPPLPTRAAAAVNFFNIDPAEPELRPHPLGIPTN

## NC(=O)[C@@H]1CCCc2cc(Sc3cccc(F)c3)ccc21 [Example 6, (R)-6-(3-Fluoro-phenylsulfanyl)-1,2,3,4-tetrahydro-naphthalene-1-carboxylic acid amide]
other
  melting point: 131.9 to 132.6 °C

## CC(=O)NC[C@@H]1CCCc2cc(S(=O)(=O)c3ccccc3)cc(F)c21 [N-((R)-6-Benzenesulfonyl-8-fluoro-1,2,3,4-tetrahydro-naphthalen-1-ylmethyl)-acetamide]
other
  melting point: 152.5 to 153.8 °C
[1]
  Ki: 178 pM

## NC(=O)NC[C@@H]1CCCc2cc(S(=O)(=O)c3cccc(F)c3)ccc21 [[(R)-6-(3-Fluoro-phenylsulfonyl)-1,2,3,4-tetrahydro-naphthalen-1-ylmethyl]-urea]
[1]
  Ki: 100 pM

## NC(=O)NC[C@@H]1CCCc2cc(S(=O)(=O)c3cccc(F)c3)cc(F)c21 [[(R)-8-Fluoro-6-(3-fluoro-benzenesulfonyl)-1,2,3,4-tetrahydro-naphthalen-1-ylmethyl]-urea]
other
  melting point: 193.5 to 194.4 °C
[1]
  Ki: 158 pM
